Assay results taken from article PMC10465233, “Lys-urea-Aad, Lys-urea-Cmc and Lys-urea-Cms as potential pharmacophores for the design of PSMA-targeted radioligands to reduce off-target uptake in kidneys and salivary glands” (Theranostics, 2023).
Values joined by “and” are separate entries in the source; they are usually repeats but may differ in a detail not shown here. Equal entries are not always repeated.

Columns and labels:
[1] = target: T1, PSMA (Homo sapiens, UniProt Q04609); experiment: In vitro competition binding assay, LNCaP cells, [^18F]DCFPyL as radioligand
T1 construct: host or cells: LNCaP prostate cancer cells
Description: The LNCaP cells obtained from ATCC (via Cedarlane, Burlington, Canada) were cultured in RPMI 1640 medium supplemented with 10% FBS, penicillin (100 U/mL) and streptomycin (100 μg/mL) at 37 °C in a Panasonic Healthcare (Tokyo, Japan) MCO-19AIC humidified incubator containing 5% CO2. The cells were confirmed pathogen free by the IMPACT Rodent Pathogen Test (IDEXX BioAnalytics). Cells grown to 80-90% confluence were then washed with sterile PBS and collected after trypsinization. The cell concentration was counted in triplicate using a hemocytometer and a manual laboratory counter.
In vitro competition binding assays were conducted as previously reported using LNCaP prostate cancer cells and [^18F]DCFPyL as the radioligand [10]-[12],[14]. Briefly, LNCaP cells (400,000/well) were plated onto a 24-well poly-D-lysine coated plate for 48 h. Growth media was removed and replaced with HEPES buffered saline (50 mM HEPES, pH 7.5, 0.9% sodium chloride) and the cells were incubated for 1 h at 37 °C. [^18F]DCFPyL (0.1 nM) was added to each well (in triplicate) containing various concentrations (0.5 mM - 0.05 nM) of tested ligands. Non-specific binding was determined in the presence of 10 µM non-radiolabeled DCFPyL. The assay mixtures were further incubated for 1 h at 37 °C with gentle agitation. Then, the buffer and hot ligand were removed, and cells were washed twice with cold HEPES buffered saline. To harvest the cells, 400 µL of 0.25% trypsin solution was added to each well. Radioactivity was measured on an automatic gamma counter. Nonlinear regression analyses and Ki calculations were performed using the GraphPad Prism 7 software.

[2] = tested on: 22Rv1 tumor model; design: method as in PMID 34453203; conditions: 1 h post-injection, 22Rv1, BALB/c nude; cited from earlier work
[3] = tested on: LNCaP tumor-bearing mice; experiment: PET/CT imaging in LNCaP tumor-bearing mice; type: in vivo, mouse; conditions: 1 h post-injection
Description: Imaging, biodistribution and radioligand therapy experiments were performed following previously published procedures using male NOD-scid IL2Rg^null (NSG) or NOD.Cg-Rag1^tm1MomIl2rg^tm1Wjl/SzJ (NRG) mice [10]-[12],[14]-[15]. The experiments were conducted according to the guidelines established by the Canadian Council on Animal Care and approved by Animal Ethics Committee of the University of British Columbia. The mice were briefly sedated by inhalation of 2% isoflurane in oxygen, and implanted subcutaneously with 1×10^7 LNCaP cells behind the left shoulder. The mice were imaged or used in biodistribution studies when the tumor grew to 5-8 mm in diameter over a period of 4-5 weeks.
PET/CT imaging experiments were conducted using a Siemens (Knoxville, TN, USA) Inveon micro PET/CT scanner. Each tumor-bearing mouse was injected with ~6-8 MBq of ^68Ga-labeled tracer through a lateral caudal tail vein. After 50 min post-injection, a 10-min CT scan was conducted first for localization and attenuation correction after segmentation for reconstructing the PET images, followed by a 10-min static PET imaging acquisition.

[4] = tested on: LNCaP tumor-bearing mice; experiment: Ex vivo biodistribution in LNCaP tumor-bearing mice; design: species or system mouse; conditions: 1 h post-injection
In short: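 Male NSG or NRG mice bearing subcutaneous LNCaP tumours (5-8 mm) were injected with 2-4 MBq radioligand, with 0.5 mg nonradioactive DCFPyL co-injected for blocking. At set time points, blood and organs were collected, weighed and gamma-counted.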

[5] = blocked, co-injected with DCFPyL (0.5 mg)

T1 sequence (Q04609 whole entry): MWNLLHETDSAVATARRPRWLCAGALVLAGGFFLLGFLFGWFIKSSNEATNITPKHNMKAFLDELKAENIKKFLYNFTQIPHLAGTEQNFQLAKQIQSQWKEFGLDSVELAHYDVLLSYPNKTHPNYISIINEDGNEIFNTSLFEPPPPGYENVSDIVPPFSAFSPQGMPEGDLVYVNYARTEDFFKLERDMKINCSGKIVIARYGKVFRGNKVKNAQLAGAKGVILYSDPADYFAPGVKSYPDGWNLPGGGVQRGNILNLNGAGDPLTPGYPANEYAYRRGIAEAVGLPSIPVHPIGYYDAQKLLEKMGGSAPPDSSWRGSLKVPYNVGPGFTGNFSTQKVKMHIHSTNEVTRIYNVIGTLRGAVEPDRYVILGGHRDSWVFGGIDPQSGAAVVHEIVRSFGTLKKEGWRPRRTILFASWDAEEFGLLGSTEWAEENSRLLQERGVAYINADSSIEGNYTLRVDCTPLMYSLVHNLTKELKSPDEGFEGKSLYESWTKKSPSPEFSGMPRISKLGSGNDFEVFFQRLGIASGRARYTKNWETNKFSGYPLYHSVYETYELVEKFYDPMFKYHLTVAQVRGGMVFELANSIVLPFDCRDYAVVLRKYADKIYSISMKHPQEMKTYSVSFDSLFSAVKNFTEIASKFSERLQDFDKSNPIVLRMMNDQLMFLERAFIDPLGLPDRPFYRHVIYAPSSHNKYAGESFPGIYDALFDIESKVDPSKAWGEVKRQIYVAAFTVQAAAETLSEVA

For `O=C([O-])CN1CCN(CC(=O)[O-])CCN(CC(=O)NCC2CCC(C(=O)NC(Cc3c4ccccc4cc4ccccc34)C(=O)NCCCCC(NC(=O)NC(CSCC(=O)O)C(=O)O)C(=O)O)CC2)CCN(CC(=O)[O-])CC1.[Ga+3]` (stereo not drawn) [Ga-HTK03177], the Ki [1] was 5 ± 2.4 nM.
For `O=C([O-])CN1CCN(CC(=O)[O-])CCN(CC(=O)NCC2CCC(C(=O)NC(Cc3ccc4ccccc4c3)C(=O)NCCCCC(NC(=O)NC(CCC(=O)O)C(=O)O)C(=O)O)CC2)CCN(CC(=O)[O-])CC1.[68Ga+3]` (stereo not drawn) [[^68Ga]Ga-PSMA-617], the Tumor uptake [2] is listed as 3.41±1.31 %ID/g.
Compound `COc1ccc(CCCC(=O)NCC(=O)N[C@@H](CCCCNC(=O)CN2CCN(CC(=O)[O-])CCN(CC(=O)[O-])CCN(CC(=O)[O-])CC2)C(=O)NC[C@H]2CC[C@H](C(=O)N[C@@H](Cc3c4ccccc4cc4ccccc34)C(=O)NCCCC[C@H](NC(=O)N[C@@H](CSCC(=O)O)C(=O)O)C(=O)O)CC2)cc1.[Lu+3]` [Lu-HTK04048] has a Ki [1] of 1.4 ± 1 nM.
For `O=C([O-])CN1CCN(CC(=O)[O-])CCN(CC(=O)NCC2CCC(C(=O)NC(Cc3c4ccccc4cc4ccccc34)C(=O)NCCCCC(NC(=O)NC(COCC(=O)O)C(=O)O)C(=O)O)CC2)CCN(CC(=O)[O-])CC1.[Ga+3]` (stereo not drawn) [Ga-HTK03187], the Ki [1] was 10.6 ± 2 nM.
For `O=C([O-])CN1CCN(CC(=O)[O-])CCN(CC(=O)NCC2CCC(C(=O)NC(Cc3c4ccccc4cc4ccccc34)C(=O)NCCCCC(NC(=O)NC(COCC(=O)O)C(=O)O)C(=O)O)CC2)CCN(CC(=O)[O-])CC1.[68Ga+3]` (stereo not drawn) [[^68Ga]Ga-HTK03187], the “Kidney uptake in PET images” value [3] was “relatively lower”, the Adrenal glands uptake [4] was 0.26 ± 0.06 %ID/g and the Blood uptake [4] was 0.67 ± 0.10 %ID/g. For the same compound, the “Blood:Salivary gland uptake ratio” value [4] was 4.27 ± 0.74, the Bone uptake [4] was 0.13 ± 0.03 %ID/g and the Brain uptake [4] was 0.02 ± 0.00 %ID/g. The Fat uptake [4] was 0.07 ± 0.02 %ID/g, the Heart uptake [4] was 0.19 ± 0.04 %ID/g and the Intestines uptake [4] was 0.23 ± 0.05 %ID/g. For the same compound, the Lacrimal glands uptake [4] was 0.09 ± 0.03 %ID/g, the Liver uptake [4] was 0.21 ± 0.05 %ID/g and the Lungs uptake [4] was 0.52 ± 0.09 %ID/g. For the same compound, the Muscle uptake [4] was 0.09 ± 0.01 %ID/g, the Pancreas uptake [4] was 0.12 ± 0.02 %ID/g and the Salivary glands uptake [4] was 0.16±0.02 %ID/g and < 0.25 %ID/g. For the same compound, the Spleen uptake [4] was 0.17 ± 0.02 %ID/g, the Stomach uptake [4] was 0.08 ± 0.05 %ID/g and the Testes uptake [4] was 0.15 ± 0.03 %ID/g. For the same compound, the Thyroid uptake [4] was 0.18 ± 0.02 %ID/g, the Tumor uptake [4] was 21.1±3.62 %ID/g and 21-25 %ID/g and the “Tumor:Blood uptake ratio” value [4] was 32.2±8.53. The “Tumor:Kidney uptake ratio” value [4] was 7.67±2.10, the “Tumor:Muscle uptake ratio” value [4] was 249±61.2 and the “Tumor:Salivary gland uptake ratio” value [4] was 133±14.0. For the same compound, the Adrenal glands uptake [4, 5] was 0.13 ± 0.06 %ID/g, the Blood uptake [4, 5] was 0.33 ± 0.16 %ID/g and the “Blood:Salivary gland uptake ratio” value [4, 5] was 3.64 ± 0.44. For the same compound, the Bone uptake [4, 5] was 0.06 ± 0.02 %ID/g, the Brain uptake [4, 5] was 0.01 ± 0.00 %ID/g and the Fat uptake [4, 5] was 0.06 ± 0.04 %ID/g. It also gave a Heart uptake [4, 5] of 0.10 ± 0.05 %ID/g, an Intestines uptake [4, 5] of 0.13 ± 0.03 %ID/g and a Kidneys uptake [4, 5] of 1.15 ± 0.37 %ID/g. The Lacrimal glands uptake [4, 5] was 0.06 ± 0.03 %ID/g, the Liver uptake [4, 5] was 0.16 ± 0.05 %ID/g and the Lungs uptake [4, 5] was 0.31 ± 0.10 %ID/g. It also gave a Muscle uptake [4, 5] of 0.08 ± 0.06 %ID/g, a Pancreas uptake [4, 5] of 0.07 ± 0.02 %ID/g and a Salivary glands uptake [4, 5] of 0.09 ± 0.04 %ID/g. It also gave a Spleen uptake [4, 5] of 0.12 ± 0.03 %ID/g, a Stomach uptake [4, 5] of 0.03 ± 0.01 %ID/g and a Testes uptake [4, 5] of 0.15 ± 0.01 %ID/g. The Thyroid uptake [4, 5] was 0.12 ± 0.05 %ID/g, the Tumor uptake [4, 5] was 0.35 ± 0.09 %ID/g and the “Tumor:Blood uptake ratio” value [4, 5] was 1.14 ± 0.25. The “Tumor:Kidney uptake ratio” value [4, 5] was 0.31 ± 0.08, the “Tumor:Muscle uptake ratio” value [4, 5] was 5.34 ± 2.25 and the “Tumor:Salivary gland uptake ratio” value [4, 5] was 4.13 ± 0.92. The Tumor uptake ([4]; listed as [^68Ga]HTK03187) was ~ 20 %ID/g and the “Reduction of average kidney uptake by co-injection of DCFPyL” value ([4]; DCFPyL 0.5 mg) was 59%.
